Experimental findings from patent KR20170076438A, “필리게닌을 포함하는 피부상태 개선용 조성물” (주식회사 엘지생활건강, priority 2015, dated 2017) are described below.

The test system of assay [1] is B-16 mouse melanoma cell [쥐의 멜라노마 세포(B-16 mouse melanoma cell)]. As to the kind of experiment: Total melanin amount in B-16 mouse melanoma cells. Format: cell-based. To be noted: 3 days; for melanin production amount: absorbance at 400 nm per 1×10^6 cells, DMSO control 0.33.
Assay [2] can be described thus: Anti-glycation assay (L-arginine and glucose, absorbance at 420 nm). Format: biochemical. Conditions: pH 7.4, 70 ℃, 4 h, 0.1 M glucose.
For assay [3], the system named is nitric oxide (NO) production in RAW264.7 cells [RAW264.7 세포주, Nitric oxide(NO)]. Put plainly: NO production inhibition in LPS-stimulated RAW264.7 cells (GRIESS method). Format: cell-based. To be noted: Mus musculus, LPS 1 μg, 24 h, 540 nm, read-out: NO production inhibition rate. Background: Griess reagent forms a coloured azo dye with nitrite.
Assay [4] has as its system type I collagen [제1형 콜라겐(type I collagen)]. Put plainly: Type I collagen synthesis in human-derived fibroblasts (PICP EIA kit). Format: cell-based. Conditions: 48 h culture, n=4; for type I collagen synthesis amount: negative control 150.2; for increase rate (type I collagen synthesis): relative to untreated control.
The target in assay [5] is T1, elastase [엘라스테이즈(Elastase)] (Homo sapiens, UniProt P08246).
T1 construct: 엘라스테이즈(Elastase)는 사람의 백혈구 세포로부터 유래한 엘라스테이즈를 사용하였고; from tissue; host or cells: human leukocytes (사람의 백혈구 세포)
T1 sequence (P08246 30-267): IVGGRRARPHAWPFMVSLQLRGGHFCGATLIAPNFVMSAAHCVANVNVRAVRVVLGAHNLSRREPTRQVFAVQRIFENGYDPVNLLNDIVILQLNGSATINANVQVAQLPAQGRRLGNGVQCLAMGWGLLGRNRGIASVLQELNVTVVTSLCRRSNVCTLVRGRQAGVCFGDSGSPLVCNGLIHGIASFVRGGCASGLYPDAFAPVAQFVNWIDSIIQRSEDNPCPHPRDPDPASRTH
As to the kind of experiment: Elastase activity inhibition (human leukocyte elastase, MeOSuc-Ala-Ala-Pro-Val-pNA). Format: biochemical. To be noted: for enzyme activity: slope of absorbance at 405 nm vs time, room temperature, 20 min, n=3, DMSO control 10.4.

The mark [6] stands for this setting: Mus musculus, 72 h, 10 ppm, relative to control, read-out: increase rate (total melanin).
Setting [7] is: pH 7.5, read-out: inhibition rate (elastase).

With `C=C[C@@]1(C)CC(=O)[C@]2(O)[C@@]3(C)[C@@H](O)CCC(C)(C)[C@@H]3[C@H](O)[C@H](OC(C)=O)[C@@]2(C)O1` [Forskolin, reference compound], the melanin production amount in assay [1] (10 ppm) is 0.792 abs. For the same compound, the activation at 10 ppm in assay [1] (setting [6]) is 140%.
On to `N=C(N)NN` [Aminoguanidine, reference compound], for which the “inhibition rate (glycation)” value in assay [2] (55 ppm) was found to be 54.89%.
As for `CNC(=N)NCCC[C@H](N)C(=O)O` [L-NMMA, L-NG-Monomethylarginine, reference compound], in assay [3], the inhibition at 10 ppm is 41%.
Turning to `O=C1O[C@H]([C@@H](O)CO)C(O)=C1O` [비타민 C, reference compound], in assay [4] (52.85 ppm (52.85 ㎍/ml)), the “type I collagen synthesis amount” value turned out to be 246.8 ng/mL and the “increase rate (type I collagen synthesis)” value was determined as 64.3%.
For `COc1cc([C@H]2OC[C@H]3[C@@H]2CO[C@H]3c2ccc(OC)c(OC)c2)ccc1O` [화학식1의 화합물, phillygenin], the results for the “type I collagen synthesis amount” value in assay [4] (1 ppm) and in assay [4] (10 ppm) were 187.6 ng/mL and 234.7 ng/mL, respectively. Moreover, the “increase rate (type I collagen synthesis)” value in assay [4] (1 ppm) was found to be 24.9%; in assay [4] (10 ppm), 56.3%. The enzyme activity in assay [5] (10 ppm) was 3.9; in assay [5] (20 ppm), 3.5. For the same compound, the inhibition at 10 ppm in assay [5] (setting [7]) came to 62.5%; in assay [3], 20.6%. In addition, in assay [5] (setting [7]), the inhibition at 20 ppm is 66.3%. Also, the “inhibition rate (glycation)” value in assay [2] (25 ppm) was determined as 32.68%; in assay [2] (50 ppm) it was 55.64%. Further, the inhibition at 1 ppm in assay [3] (1 ppm) worked out at 17.9%. The inhibition at 100 ppm in assay [3] (100 ppm) amounted to 51.7%. The melanin production amount in assay [1] (1 ppm) is reported as 0.359 abs; in assay [1] (10 ppm), 0.403 abs. Moreover, the activation at 1 ppm in assay [1] (Mus musculus, 72 h, 1 ppm, relative to control, read-out: increase rate (total melanin)) was found to be 8.79%. Further, in assay [1] (setting [6]), the activation at 10 ppm was determined as 22.1%.

Usually inhibition stands for the relative decrease from the control value, in per cent.
